Laboratory results published in ChEMBL document CHEMBL1201862, “PubChem BioAssay data set” (2004).
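These data come from cells grown in 96-well plates and exposed to compound for 48 hours at five concentrations. Here, GI50 denotes the concentration required for 50% inhibition of growth.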 Active and inactive are the calls of the source. No stated cut-off is given here; in the data, active = GI50 up to about 1.1 µM and inactive = higher.

Tests used:
Assay in all cases: inhibition of tumour cell growth, NCI panel, 48 h
[1] = tested on: OVCAR-5
[2] = tested on: OVCAR-8
[3] = tested on: CAKI-1
[4] = tested on: SF-295
[5] = tested on: RPMI-8226
[6] = tested on: DU-145
[7] = tested on: NCI/ADR-RES
[8] = tested on: ACHN
[9] = tested on: MDA-N
[10] = tested on: OVCAR-3
[11] = tested on: HOP-62
[12] = tested on: MCF7
[13] = tested on: HCT-116
[14] = tested on: SNB-75
[15] = tested on: A549
[16] = tested on: EKVX
[17] = tested on: SNB-19
[18] = tested on: UO-31
[19] = tested on: OVCAR-4
[20] = tested on: NCI-H522

Structure (SMILES)	GI50 [1]	GI50 [2]	GI50 [3]	GI50 [4]	GI50 [5]	GI50 [6]	GI50 [7]	GI50 [8]	GI50 [9]	GI50 [10]	GI50 [11]	GI50 [12]	GI50 [13]	GI50 [14]	GI50 [15]	GI50 [16]	GI50 [17]	GI50 [18]	GI50 [19]	GI50 [20]
O=C1C2=Cc3ccccc3OC2(O)Oc2cc(O)ccc21 (stereo not given)	> 100 µM (inactive)	> 100 µM (inactive)	> 100 µM (inactive)	> 100 µM (inactive)	> 100 µM (inactive)	> 100 µM (inactive)	> 100 µM (inactive)	> 100 µM (inactive)	> 100 µM (inactive)	> 100 µM (inactive)	> 100 µM (inactive)	> 100 µM (inactive)	> 100 µM (inactive)	> 100 µM (inactive)	> 100 µM (inactive)	> 100 µM (inactive)	–	–	–	–
CCCCCCCCCCCCCC(=O)CBr	22.1 µM (inactive)	14 µM (inactive)	1.1 µM (active)	15.4 µM (inactive)	1.47 µM (inactive)	18.6 µM (inactive)	–	15 µM (inactive)	12.3 µM (inactive)	18.3 µM (inactive)	21.5 µM (inactive)	13.4 µM (inactive)	12.3 µM (inactive)	6.03 µM (inactive)	22.5 µM (inactive)	18.7 µM (inactive)	16.9 µM (inactive)	8.93 µM (inactive)	14.2 µM (inactive)	1.84 µM (inactive)
CC(C)=C=CC(C)(C)NS(=O)(=O)NC(C)(C)C=C=C(C)C	> 100 µM (inactive)	> 100 µM (inactive)	> 100 µM (inactive)	> 100 µM (inactive)	–	> 100 µM (inactive)	> 100 µM (inactive)	> 100 µM (inactive)	> 100 µM (inactive)	71.3 µM (inactive)	> 100 µM (inactive)	> 100 µM (inactive)	> 100 µM (inactive)	47.4 µM (inactive)	42.1 µM (inactive)	> 100 µM (inactive)	> 100 µM (inactive)	–	> 100 µM (inactive)	56.6 µM (inactive)
CCOP(=O)(OCC)C1CC(O)C(=O)N1 (stereo not given)	> 100 µM (inactive)	> 100 µM (inactive)	–	> 100 µM (inactive)	> 100 µM (inactive)	> 100 µM (inactive)	> 100 µM (inactive)	> 100 µM (inactive)	> 100 µM (inactive)	> 100 µM (inactive)	> 100 µM (inactive)	> 100 µM (inactive)	> 100 µM (inactive)	> 100 µM (inactive)	> 100 µM (inactive)	> 100 µM (inactive)	> 100 µM (inactive)	> 100 µM (inactive)	> 100 µM (inactive)	–
O=C1/C(=N/c2ccccc2)Oc2cc(O)ccc21	> 100 µM (inactive)	> 100 µM (inactive)	> 100 µM (inactive)	> 100 µM (inactive)	–	> 100 µM (inactive)	> 100 µM (inactive)	> 100 µM (inactive)	> 100 µM (inactive)	> 100 µM (inactive)	> 100 µM (inactive)	56.4 µM (inactive)	> 100 µM (inactive)	> 100 µM (inactive)	> 100 µM (inactive)	> 100 µM (inactive)	> 100 µM (inactive)	> 100 µM (inactive)	> 100 µM (inactive)	> 100 µM (inactive)
COC(=O)CCC(=O)c1ccc2c(c1)CC1(Cc3ccccc3C1)C2	53.5 µM (inactive)	47.1 µM (inactive)	–	38 µM (inactive)	31.7 µM (inactive)	–	64 µM (inactive)	56.2 µM (inactive)	49.1 µM (inactive)	57.8 µM (inactive)	> 100 µM (inactive)	85.5 µM (inactive)	28.3 µM (inactive)	–	54.7 µM (inactive)	> 100 µM (inactive)	–	42.9 µM (inactive)	32.1 µM (inactive)	33.4 µM (inactive)
CCn1c(-c2ccc(OC)cc2)nc2c1C(=O)c1ccccc1C2=O	> 100 µM (inactive)	> 100 µM (inactive)	–	> 100 µM (inactive)	> 100 µM (inactive)	> 100 µM (inactive)	> 100 µM (inactive)	> 100 µM (inactive)	> 100 µM (inactive)	> 100 µM (inactive)	59.6 µM (inactive)	> 100 µM (inactive)	> 100 µM (inactive)	> 100 µM (inactive)	> 100 µM (inactive)	> 100 µM (inactive)	> 100 µM (inactive)	–	> 100 µM (inactive)	> 100 µM (inactive)
Cc1nc2c(nc1C)-c1c(c3c(n1C)C(=O)CCC3)C(=O)C2=O	0.953 µM (active)	0.236 µM (active)	–	1.75 µM (inactive)	0.194 µM (active)	0.592 µM (active)	0.547 µM (active)	0.476 µM (active)	0.162 µM (active)	0.156 µM (active)	0.885 µM (active)	0.163 µM (active)	0.249 µM (active)	0.931 µM (active)	1.3 µM (inactive)	1.06 µM (active)	0.873 µM (active)	0.456 µM (active)	0.145 µM (active)	0.434 µM (active)
CC(=O)OCC1=C(C)C(OC(=O)C(OC(C)=O)[C@@H](NC(=O)c2ccccc2)c2ccccc2)CCC1(C)C (stereo not given in full)	> 100 µM (inactive)	> 100 µM (inactive)	> 100 µM (inactive)	> 100 µM (inactive)	> 100 µM (inactive)	> 100 µM (inactive)	> 100 µM (inactive)	> 100 µM (inactive)	> 100 µM (inactive)	> 100 µM (inactive)	> 100 µM (inactive)	> 100 µM (inactive)	> 100 µM (inactive)	9.86 µM (inactive)	> 100 µM (inactive)	> 100 µM (inactive)	> 100 µM (inactive)	> 100 µM (inactive)	> 100 µM (inactive)	–
Cc1ccc(Cl)c2[nH]c(-c3ccccc3)cc(=O)c12	76.4 µM (inactive)	50.9 µM (inactive)	–	63.5 µM (inactive)	36.1 µM (inactive)	43.7 µM (inactive)	57.4 µM (inactive)	30.3 µM (inactive)	22.3 µM (inactive)	36.1 µM (inactive)	78.3 µM (inactive)	3.18 µM (inactive)	29.2 µM (inactive)	36.1 µM (inactive)	24.1 µM (inactive)	6.41 µM (inactive)	–	–	37.8 µM (inactive)	57.1 µM (inactive)
Nc1ncnc2c1ncn2[C@@H]1C[C@H](NO)[C@@H](O)[C@H]1O	> 100 µM (inactive)	> 100 µM (inactive)	–	> 100 µM (inactive)	10.8 µM (inactive)	> 100 µM (inactive)	68.5 µM (inactive)	> 100 µM (inactive)	> 100 µM (inactive)	> 100 µM (inactive)	> 100 µM (inactive)	49.3 µM (inactive)	4.88 µM (inactive)	> 100 µM (inactive)	> 100 µM (inactive)	> 100 µM (inactive)	> 100 µM (inactive)	7.33 µM (inactive)	> 100 µM (inactive)	> 100 µM (inactive)
COP(=O)(OC)[C@@](O)(c1ccccc1)[C@@H](O)[C@H](O)c1ccccc1	> 100 µM (inactive)	> 100 µM (inactive)	> 100 µM (inactive)	> 100 µM (inactive)	–	> 100 µM (inactive)	> 100 µM (inactive)	> 100 µM (inactive)	> 100 µM (inactive)	> 100 µM (inactive)	–	22.5 µM (inactive)	36 µM (inactive)	> 100 µM (inactive)	> 100 µM (inactive)	> 100 µM (inactive)	> 100 µM (inactive)	> 100 µM (inactive)	> 100 µM (inactive)	> 100 µM (inactive)
CCN1C(=O)c2ccccc2C1(O)c1ccc(Cl)cc1 (stereo not given)	88.1 µM (inactive)	52.8 µM (inactive)	> 100 µM (inactive)	18.4 µM (inactive)	61.9 µM (inactive)	80.2 µM (inactive)	16.5 µM (inactive)	46.5 µM (inactive)	> 100 µM (inactive)	31.1 µM (inactive)	78 µM (inactive)	47.6 µM (inactive)	37.7 µM (inactive)	> 10 µM (inactive)	25 µM (inactive)	33.3 µM (inactive)	20.7 µM (inactive)	53.5 µM (inactive)	> 100 µM (inactive)	–
S=C(c1c[nH]c2ccccc12)N1CCN(c2ccccc2)CC1	> 100 µM (inactive)	37.8 µM (inactive)	> 100 µM (inactive)	79.8 µM (inactive)	> 100 µM (inactive)	> 100 µM (inactive)	34.9 µM (inactive)	87.1 µM (inactive)	> 100 µM (inactive)	> 100 µM (inactive)	75.3 µM (inactive)	> 100 µM (inactive)	> 100 µM (inactive)	0.403 µM (active)	–	19.4 µM (inactive)	> 100 µM (inactive)	–	–	–
CCOC(=O)c1sc(N/N=C2\NC(=O)/C(=C/c3ccc([N+](=O)[O-])cc3)S2)nc1C	22.6 µM (inactive)	22.4 µM (inactive)	22.1 µM (inactive)	20.4 µM (inactive)	–	16.8 µM (inactive)	23.9 µM (inactive)	21.8 µM (inactive)	25.9 µM (inactive)	14.5 µM (inactive)	17.2 µM (inactive)	22.3 µM (inactive)	16.8 µM (inactive)	25.8 µM (inactive)	28.3 µM (inactive)	15.7 µM (inactive)	32.6 µM (inactive)	16.2 µM (inactive)	26.1 µM (inactive)	17.7 µM (inactive)
